Data published in ChEMBL document CHEMBL1139185, “Methyl spongoate, a cytotoxic steroid from the Sanya soft coral Spongodes sp” (Bioorg Med Chem Lett, 2007).
Converted amounts (≈) assume the structure as drawn.

Key:
Format in all cases: functional, cell-based
HT-29 = experiment: Cytotoxicity against human HT29 cells
A549 = experiment: Cytotoxicity against human A549 cells
P388 = experiment: Cytotoxicity against mouse P388 cells
Bel-7402 = experiment: Cytotoxicity against human BEL-7402 cells

COC(=O)[C@H](CCCC(C)C)[C@H]1CC[C@H]2[C@@H]3CC[C@H]4CC(=O)C=C[C@]4(C)[C@H]3CC[C@]12C [METHYL SPONGOATE]
IC50 (HT-29): 5 µg/mL (≈ 11.7 µM)
IC50 (A549): 5 µg/mL (≈ 11.7 µM)
IC50 (P388): 3.8 µg/mL (≈ 8.86 µM)
IC50 (Bel-7402): 0.14 µg/mL (≈ 0.327 µM)
